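Step 1: Grow cells in 96-well plates. Step 2: Expose to compound for 48 hours at 5 concentrations. Step 3: Interpolate endpoints linearly; if unreached, use highest concentration. Abbreviation: GI50, concentration required for 50% inhibition of growth.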 Calls of active or inactive are those of the source. Cut-off read from the data, not from the text of the source: active = GI50 up to about 1.1 µM and inactive = higher.
Experiments:
Assay in all cases: growth of human tumour cells (NCI), 48 h
PC-3 = system: PC-3
T47D = system: T47D
CCRF-CEM = system: CCRF-CEM
MDA-MB-231 = system: MDA-MB-231
SF-295 = system: SF-295
ACHN = system: ACHN
COLO 205 = system: COLO 205
U-251 = system: U-251
NCI-H522 = system: NCI-H522
OVCAR-8 = system: OVCAR-8
RPMI-8226 = system: RPMI-8226
KM12 = system: KM12
MDA-MB-435 = system: MDA-MB-435
M14 = system: M14
SF-539 = system: SF-539
SNB-19 = system: SNB-19
HCT-15 = system: HCT-15
IGROV-1 = system: IGROV-1
786-0 = system: 786-0
DU-145 = system: DU-145
A498 = system: A498
LOX IMVI = system: LOX IMVI
TK-10 = system: TK-10
EKVX = system: EKVX
A549 = system: A549
SF-268 = system: SF-268
SK-OV-3 = system: SK-OV-3
SR = system: SR
K562 = system: K562
CAKI-1 = system: CAKI-1
UO-31 = system: UO-31
UACC-62 = system: UACC-62
Hs-578T = system: Hs-578T
SK-MEL-2 = system: SK-MEL-2
MDA-N = system: MDA-N
MCF7 = system: MCF7
BT-549 = system: BT-549
SK-MEL-5 = system: SK-MEL-5
HT-29 = system: HT-29
SN12C = system: SN12C
HL-60 = system: HL-60
OVCAR-5 = system: OVCAR-5
NCI-H226 = system: NCI-H226
OVCAR-3 = system: OVCAR-3
HOP-62 = system: HOP-62
Malme-3M = system: Malme-3M
MOLT-4 = system: MOLT-4
OVCAR-4 = system: OVCAR-4
SK-MEL-28 = system: SK-MEL-28
NCI/ADR-RES = system: NCI/ADR-RES
SW-620 = system: SW-620
HOP-92 = system: HOP-92
NCI-H23 = system: NCI-H23
HCT-116 = system: HCT-116
RXF 393 = system: RXF 393
NCI-H460 = system: NCI-H460
SNB-75 = system: SNB-75
UACC-257 = system: UACC-257
HCC 2998 = system: HCC 2998

Measured: GI50

COc1ccc2c3c1O[C@H]1C(=O)C=CC4(n5[nH]c(=O)n(-c6ccccc6)c5=O)C(C2)N(C)CCC314 (some centres not stated)
inactive: PC-3 > 100 µM | T47D > 100 µM | CCRF-CEM > 100 µM | MDA-MB-231 > 100 µM | SF-295 > 100 µM | ACHN > 100 µM | COLO 205 > 100 µM | U-251 > 100 µM | NCI-H522 > 100 µM | OVCAR-8 > 100 µM | RPMI-8226 > 100 µM | KM12 > 100 µM | MDA-MB-435 > 100 µM | M14 > 100 µM | SF-539 > 100 µM | SNB-19 > 100 µM | IGROV-1 > 100 µM | 786-0 > 100 µM | DU-145 > 100 µM | A498 > 100 µM | LOX IMVI > 100 µM | TK-10 > 100 µM | EKVX > 100 µM | A549 > 100 µM | SF-268 > 100 µM | SK-OV-3 > 100 µM | SR > 100 µM | K562 > 100 µM | CAKI-1 > 100 µM | UO-31 > 100 µM | UACC-62 > 100 µM | Hs-578T > 100 µM | SK-MEL-2 > 100 µM | MDA-N > 100 µM | MCF7 > 100 µM | BT-549 > 100 µM | SK-MEL-5 > 100 µM | HT-29 > 100 µM | SN12C > 100 µM | HL-60 > 100 µM | OVCAR-5 > 100 µM | NCI-H226 > 100 µM | OVCAR-3 > 100 µM | HOP-62 > 100 µM | Malme-3M > 100 µM | MOLT-4 > 100 µM | OVCAR-4 > 100 µM | SK-MEL-28 > 100 µM | NCI/ADR-RES > 100 µM | SW-620 > 100 µM | HOP-92 > 100 µM | NCI-H23 > 100 µM | HCT-116 > 100 µM
> 100 µM: HCT-15

COc1cc(-c2ccccc2)cn2c1nc1ccccc12
15.3 µM: HCT-15
inactive: PC-3 18.8 µM | T47D 20.7 µM | CCRF-CEM 25.5 µM | MDA-MB-231 21.8 µM | RXF 393 17.3 µM | ACHN 20 µM | COLO 205 19.2 µM | U-251 20 µM | NCI-H522 16.5 µM | OVCAR-8 24.8 µM | RPMI-8226 20.9 µM | KM12 17.9 µM | MDA-MB-435 18.9 µM | M14 20.3 µM | SF-539 26.6 µM | SNB-19 23.1 µM | IGROV-1 25.2 µM | 786-0 15.7 µM | DU-145 25.6 µM | LOX IMVI 22.3 µM | NCI-H460 21.2 µM | A549 20 µM | SF-268 26.1 µM | SK-OV-3 23.9 µM | SR 29.2 µM | K562 25.2 µM | CAKI-1 19.6 µM | UO-31 14.8 µM | UACC-62 18.7 µM | Hs-578T 27.6 µM | SNB-75 17.6 µM | UACC-257 22.7 µM | SK-MEL-2 22.1 µM | MDA-N 17.7 µM | MCF7 17.1 µM | BT-549 17.8 µM | SK-MEL-5 18.5 µM | HT-29 17.3 µM | SN12C 19.8 µM | HL-60 15.6 µM | HCC 2998 15.9 µM | OVCAR-5 15 µM | NCI-H226 17.5 µM | OVCAR-3 16.4 µM | HOP-62 19.9 µM | Malme-3M 20.2 µM | MOLT-4 15.7 µM | SK-MEL-28 17 µM | NCI/ADR-RES 22.8 µM | SW-620 35 µM | HOP-92 14.5 µM | NCI-H23 35 µM | HCT-116 20.9 µM

COc1ccc2[nH]c3c(C)c4ccnc(NCCCN(C)CCCNc5ccc([N+](=O)[O-])c6[nH]c7ccccc7c(=O)c56)c4c(C)c3c2c1
0.0295 µM: HCT-15
active: PC-3 0.426 µM | T47D 0.815 µM | CCRF-CEM 0.212 µM | MDA-MB-231 0.621 µM | SF-295 0.104 µM | RXF 393 0.0396 µM | ACHN 0.0207 µM | COLO 205 0.0723 µM | U-251 0.0887 µM | NCI-H522 0.0235 µM | OVCAR-8 0.472 µM | RPMI-8226 0.0826 µM | KM12 0.301 µM | MDA-MB-435 0.471 µM | M14 0.422 µM | SF-539 0.106 µM | SNB-19 0.284 µM | IGROV-1 0.0291 µM | 786-0 0.0244 µM | DU-145 0.628 µM | A498 0.841 µM | LOX IMVI 0.14 µM | NCI-H460 0.025 µM | TK-10 0.018 µM | EKVX 0.271 µM | A549 0.0372 µM | SF-268 0.52 µM | SK-OV-3 0.76 µM | SR 0.0114 µM | K562 0.00652 µM | CAKI-1 0.466 µM | UO-31 0.59 µM | UACC-62 0.82 µM | Hs-578T 0.604 µM | SNB-75 0.743 µM | UACC-257 0.655 µM | SK-MEL-2 0.731 µM | MDA-N 0.372 µM | MCF7 0.0667 µM | BT-549 0.678 µM | SK-MEL-5 0.11 µM | HT-29 0.00813 µM | SN12C 0.0524 µM | HL-60 0.53 µM | HCC 2998 0.0178 µM | OVCAR-5 0.607 µM | NCI-H226 0.421 µM | OVCAR-3 0.607 µM | HOP-62 0.239 µM | Malme-3M 0.285 µM | MOLT-4 0.005 µM | OVCAR-4 0.132 µM | SK-MEL-28 0.887 µM | NCI/ADR-RES 0.592 µM | SW-620 0.00811 µM | NCI-H23 0.575 µM | HCT-116 0.0145 µM

c1ccc(C2OCC(OC3CCCCO3)CO2)cc1 (configuration not stated)
inactive: PC-3 > 100 µM | T47D > 100 µM | CCRF-CEM > 10 µM | MDA-MB-231 > 100 µM | SF-295 > 100 µM | ACHN > 100 µM | COLO 205 > 100 µM | U-251 > 100 µM | NCI-H522 > 100 µM | OVCAR-8 > 100 µM | RPMI-8226 > 100 µM | MDA-MB-435 > 100 µM | M14 > 100 µM | SF-539 > 100 µM | SNB-19 > 100 µM | IGROV-1 > 100 µM | 786-0 > 100 µM | DU-145 > 100 µM | A498 > 100 µM | LOX IMVI > 100 µM | NCI-H460 > 100 µM | TK-10 > 100 µM | EKVX > 100 µM | A549 > 100 µM | SF-268 > 100 µM | SK-OV-3 > 100 µM | SR > 100 µM | K562 > 100 µM | CAKI-1 > 100 µM | UO-31 75.5 µM | UACC-62 > 100 µM | Hs-578T 2.36 µM | UACC-257 > 100 µM | SK-MEL-2 > 100 µM | MDA-N > 100 µM | MCF7 > 100 µM | BT-549 > 100 µM | SK-MEL-5 > 100 µM | HT-29 > 100 µM | SN12C > 100 µM | HL-60 > 100 µM | HCC 2998 > 100 µM | OVCAR-5 > 100 µM | NCI-H226 > 100 µM | OVCAR-3 > 100 µM | HOP-62 > 100 µM | Malme-3M > 100 µM | MOLT-4 5.24 µM | OVCAR-4 > 100 µM | SK-MEL-28 > 100 µM | NCI/ADR-RES > 100 µM | SW-620 > 100 µM | HOP-92 > 100 µM | NCI-H23 > 100 µM | HCT-116 > 100 µM
> 100 µM: HCT-15

Source: ChEMBL document CHEMBL1201862, “PubChem BioAssay data set” (2004)
